Here are results for three molecules from ChEMBL document CHEMBL5465560, “Selectivity Literature for EUbOPEN Chemogenomic Library” (2024).

The target in assay [1] is Casein kinase II subunit alpha (Homo sapiens, UniProt P68400). The assay is described as follows: Selectivity interaction (KinomeScan (DiscoverX)) EUB0000607a CSNK2A1. The note with it: at 10 µM.
Assay [2] has as its target T1, Mitogen-activated protein kinase kinase kinase 15 (Homo sapiens) (UniProt Q6ZN16).
T1 sequence (whole entry): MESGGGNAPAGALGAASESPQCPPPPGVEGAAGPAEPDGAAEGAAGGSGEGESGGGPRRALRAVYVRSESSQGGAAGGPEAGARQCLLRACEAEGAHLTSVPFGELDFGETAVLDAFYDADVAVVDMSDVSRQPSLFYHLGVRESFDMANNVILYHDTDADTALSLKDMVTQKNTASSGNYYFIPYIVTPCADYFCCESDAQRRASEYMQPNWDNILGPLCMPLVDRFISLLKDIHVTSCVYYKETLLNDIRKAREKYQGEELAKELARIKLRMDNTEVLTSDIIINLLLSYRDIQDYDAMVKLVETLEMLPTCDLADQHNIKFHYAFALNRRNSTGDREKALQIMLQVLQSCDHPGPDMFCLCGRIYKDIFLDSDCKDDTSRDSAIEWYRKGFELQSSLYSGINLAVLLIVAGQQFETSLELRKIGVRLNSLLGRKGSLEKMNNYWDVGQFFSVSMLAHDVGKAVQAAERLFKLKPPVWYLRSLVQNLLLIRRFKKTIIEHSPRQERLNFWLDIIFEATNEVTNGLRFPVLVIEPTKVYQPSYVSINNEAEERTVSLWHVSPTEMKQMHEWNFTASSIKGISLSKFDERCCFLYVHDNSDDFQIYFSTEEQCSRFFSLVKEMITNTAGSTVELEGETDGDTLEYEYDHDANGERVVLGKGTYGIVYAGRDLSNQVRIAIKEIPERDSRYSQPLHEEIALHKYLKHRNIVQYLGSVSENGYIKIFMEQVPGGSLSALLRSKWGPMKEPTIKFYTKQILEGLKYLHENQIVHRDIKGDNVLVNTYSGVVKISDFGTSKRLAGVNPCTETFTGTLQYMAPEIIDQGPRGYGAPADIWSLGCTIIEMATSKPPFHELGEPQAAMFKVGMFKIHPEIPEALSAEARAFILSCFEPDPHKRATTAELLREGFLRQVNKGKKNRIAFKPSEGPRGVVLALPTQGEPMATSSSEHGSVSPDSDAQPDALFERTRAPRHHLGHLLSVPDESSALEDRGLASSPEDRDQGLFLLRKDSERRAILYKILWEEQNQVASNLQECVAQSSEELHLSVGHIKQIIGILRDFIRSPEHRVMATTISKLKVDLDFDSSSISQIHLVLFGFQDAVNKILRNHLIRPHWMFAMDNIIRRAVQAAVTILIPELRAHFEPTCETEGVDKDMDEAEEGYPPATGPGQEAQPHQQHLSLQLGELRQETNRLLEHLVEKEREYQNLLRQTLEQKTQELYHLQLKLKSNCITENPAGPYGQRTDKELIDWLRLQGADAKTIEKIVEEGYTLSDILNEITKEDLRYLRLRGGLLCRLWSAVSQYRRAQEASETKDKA
The assay is described as follows: Selectivity interaction (KinomeScan (DiscoverX)) EUB0000607a MAP3K15. The note with it: at 10 µM.

The test system of assay [3] is Hepatocyte growth factor receptor (Homo sapiens), P08581 [Y1235D]. The assay is described as follows: (§1) Selectivity interaction (KinomeScan (DiscoverX)) EUB0000311b MET. Particulars: at 1 µM.
In assay [4] the target is Hepatocyte growth factor receptor (Homo sapiens, UniProt P08581). The assay is described as §1. Particulars: at 1 µM.
For assay [5], the system named is Hepatocyte growth factor receptor (Homo sapiens), P08581 [M1250T]. Described as §1. Particulars: at 1 µM.
In assay [6] the target is T2, Ephrin type-A receptor 8 (Homo sapiens) (UniProt P29322).
T2 sequence (whole entry): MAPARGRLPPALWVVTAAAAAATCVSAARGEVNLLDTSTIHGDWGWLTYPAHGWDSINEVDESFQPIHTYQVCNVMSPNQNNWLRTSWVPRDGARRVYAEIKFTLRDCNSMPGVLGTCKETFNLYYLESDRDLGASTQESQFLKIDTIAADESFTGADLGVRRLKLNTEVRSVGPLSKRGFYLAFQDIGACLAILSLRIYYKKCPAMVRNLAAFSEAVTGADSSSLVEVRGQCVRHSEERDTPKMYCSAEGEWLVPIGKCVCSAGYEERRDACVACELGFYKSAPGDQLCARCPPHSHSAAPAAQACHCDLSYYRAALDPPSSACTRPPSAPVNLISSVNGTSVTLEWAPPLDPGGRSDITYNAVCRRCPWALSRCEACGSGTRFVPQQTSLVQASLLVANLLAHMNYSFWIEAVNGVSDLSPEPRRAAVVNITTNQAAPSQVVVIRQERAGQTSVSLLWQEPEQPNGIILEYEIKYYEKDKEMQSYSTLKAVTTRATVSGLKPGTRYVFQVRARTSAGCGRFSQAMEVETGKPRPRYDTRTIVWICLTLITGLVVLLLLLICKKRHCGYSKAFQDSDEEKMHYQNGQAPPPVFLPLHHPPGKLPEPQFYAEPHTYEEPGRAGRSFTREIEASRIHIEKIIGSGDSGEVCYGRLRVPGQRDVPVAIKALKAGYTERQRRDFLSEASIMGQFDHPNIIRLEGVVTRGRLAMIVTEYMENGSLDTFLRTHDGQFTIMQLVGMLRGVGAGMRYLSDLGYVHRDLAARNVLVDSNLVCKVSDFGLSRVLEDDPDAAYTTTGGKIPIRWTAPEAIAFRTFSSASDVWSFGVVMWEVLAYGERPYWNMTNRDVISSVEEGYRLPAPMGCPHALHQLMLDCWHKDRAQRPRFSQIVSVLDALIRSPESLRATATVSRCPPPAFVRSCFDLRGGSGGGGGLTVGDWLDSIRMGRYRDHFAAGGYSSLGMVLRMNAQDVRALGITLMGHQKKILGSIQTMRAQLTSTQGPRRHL
The assay is described as follows: Selectivity interaction (Ambit KINOMEscan and KiNATiv profiling in Jurkat cells) EUB0000090b EPHA8. The class given is cell-based. The note with it: at 1 µM.

Sequence of Hepatocyte growth factor receptor (P08581 whole entry): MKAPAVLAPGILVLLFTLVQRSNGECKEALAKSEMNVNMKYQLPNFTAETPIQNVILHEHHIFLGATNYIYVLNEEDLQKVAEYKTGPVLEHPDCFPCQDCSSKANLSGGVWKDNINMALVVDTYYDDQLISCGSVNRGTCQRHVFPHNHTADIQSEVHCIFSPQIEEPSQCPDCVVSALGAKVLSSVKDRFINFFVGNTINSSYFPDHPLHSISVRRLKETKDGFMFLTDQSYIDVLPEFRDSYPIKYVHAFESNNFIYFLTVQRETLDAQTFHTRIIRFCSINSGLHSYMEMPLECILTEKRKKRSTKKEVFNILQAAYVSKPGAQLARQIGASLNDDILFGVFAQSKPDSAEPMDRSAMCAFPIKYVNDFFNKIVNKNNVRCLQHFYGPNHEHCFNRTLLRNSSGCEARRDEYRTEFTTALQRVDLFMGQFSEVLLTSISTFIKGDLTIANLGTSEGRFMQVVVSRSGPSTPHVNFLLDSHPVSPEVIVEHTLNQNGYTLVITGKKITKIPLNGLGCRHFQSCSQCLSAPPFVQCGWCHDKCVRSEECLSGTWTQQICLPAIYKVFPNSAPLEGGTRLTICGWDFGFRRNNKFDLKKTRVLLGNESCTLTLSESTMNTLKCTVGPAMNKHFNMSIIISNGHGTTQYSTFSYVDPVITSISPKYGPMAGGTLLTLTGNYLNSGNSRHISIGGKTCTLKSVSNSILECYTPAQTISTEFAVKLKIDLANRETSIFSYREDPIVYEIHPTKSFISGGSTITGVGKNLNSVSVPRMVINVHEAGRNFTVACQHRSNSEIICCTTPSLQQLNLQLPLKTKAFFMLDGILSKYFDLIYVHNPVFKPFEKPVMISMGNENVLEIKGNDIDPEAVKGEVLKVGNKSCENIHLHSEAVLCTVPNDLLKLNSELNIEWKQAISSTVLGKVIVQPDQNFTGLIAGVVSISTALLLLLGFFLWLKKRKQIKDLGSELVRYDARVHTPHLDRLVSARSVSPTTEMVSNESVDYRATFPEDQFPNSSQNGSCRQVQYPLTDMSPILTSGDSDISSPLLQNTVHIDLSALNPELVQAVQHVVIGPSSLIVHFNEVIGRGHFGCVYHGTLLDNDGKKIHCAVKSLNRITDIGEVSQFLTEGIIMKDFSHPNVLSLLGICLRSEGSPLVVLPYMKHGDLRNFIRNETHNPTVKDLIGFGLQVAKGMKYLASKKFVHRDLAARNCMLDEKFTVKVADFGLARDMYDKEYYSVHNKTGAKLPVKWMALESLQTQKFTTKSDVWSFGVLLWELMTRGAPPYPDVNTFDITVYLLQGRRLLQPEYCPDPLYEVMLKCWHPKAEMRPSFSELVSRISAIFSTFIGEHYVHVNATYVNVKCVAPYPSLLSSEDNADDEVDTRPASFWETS
Sequence of Hepatocyte growth factor receptor (Homo sapiens), P08581 [Y1235D] (P08581 whole entry Y1235D): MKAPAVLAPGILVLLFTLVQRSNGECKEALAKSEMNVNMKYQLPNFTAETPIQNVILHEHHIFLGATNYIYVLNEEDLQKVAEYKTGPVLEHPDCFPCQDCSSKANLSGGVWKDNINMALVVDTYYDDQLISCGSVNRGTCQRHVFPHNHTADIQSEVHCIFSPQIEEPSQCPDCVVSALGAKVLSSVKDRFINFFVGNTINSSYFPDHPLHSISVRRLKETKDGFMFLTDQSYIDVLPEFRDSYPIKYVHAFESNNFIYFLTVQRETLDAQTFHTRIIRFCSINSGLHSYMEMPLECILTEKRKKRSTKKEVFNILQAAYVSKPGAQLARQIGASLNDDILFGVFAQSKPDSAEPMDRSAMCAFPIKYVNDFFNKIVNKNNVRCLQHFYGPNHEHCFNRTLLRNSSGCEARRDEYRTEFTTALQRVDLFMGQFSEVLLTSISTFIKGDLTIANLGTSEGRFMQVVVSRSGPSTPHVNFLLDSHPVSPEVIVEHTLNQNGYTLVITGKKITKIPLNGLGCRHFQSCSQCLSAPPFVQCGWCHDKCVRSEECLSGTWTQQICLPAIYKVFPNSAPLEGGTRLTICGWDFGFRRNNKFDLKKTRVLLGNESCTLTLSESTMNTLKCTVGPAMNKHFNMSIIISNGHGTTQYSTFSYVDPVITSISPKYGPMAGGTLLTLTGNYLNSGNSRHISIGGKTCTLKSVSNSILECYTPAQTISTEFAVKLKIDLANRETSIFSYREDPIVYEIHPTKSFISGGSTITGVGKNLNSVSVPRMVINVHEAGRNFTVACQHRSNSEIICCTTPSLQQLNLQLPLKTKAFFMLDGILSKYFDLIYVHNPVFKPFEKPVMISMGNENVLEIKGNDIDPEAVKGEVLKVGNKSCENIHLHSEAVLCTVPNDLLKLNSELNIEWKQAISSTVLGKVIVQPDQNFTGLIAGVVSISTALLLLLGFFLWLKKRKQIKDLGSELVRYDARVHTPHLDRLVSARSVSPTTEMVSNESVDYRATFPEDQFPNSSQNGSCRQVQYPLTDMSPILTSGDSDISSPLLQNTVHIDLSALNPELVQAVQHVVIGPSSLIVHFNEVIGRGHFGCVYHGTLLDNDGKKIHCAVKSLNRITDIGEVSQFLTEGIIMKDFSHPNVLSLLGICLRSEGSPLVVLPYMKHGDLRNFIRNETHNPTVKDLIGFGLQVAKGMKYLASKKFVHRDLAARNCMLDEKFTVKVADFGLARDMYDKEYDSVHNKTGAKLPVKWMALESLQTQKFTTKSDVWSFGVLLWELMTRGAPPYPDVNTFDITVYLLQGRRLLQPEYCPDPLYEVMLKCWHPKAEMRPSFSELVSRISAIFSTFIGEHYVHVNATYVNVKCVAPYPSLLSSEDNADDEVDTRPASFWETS
Sequence of Hepatocyte growth factor receptor (Homo sapiens), P08581 [M1250T] (P08581 whole entry M1250T): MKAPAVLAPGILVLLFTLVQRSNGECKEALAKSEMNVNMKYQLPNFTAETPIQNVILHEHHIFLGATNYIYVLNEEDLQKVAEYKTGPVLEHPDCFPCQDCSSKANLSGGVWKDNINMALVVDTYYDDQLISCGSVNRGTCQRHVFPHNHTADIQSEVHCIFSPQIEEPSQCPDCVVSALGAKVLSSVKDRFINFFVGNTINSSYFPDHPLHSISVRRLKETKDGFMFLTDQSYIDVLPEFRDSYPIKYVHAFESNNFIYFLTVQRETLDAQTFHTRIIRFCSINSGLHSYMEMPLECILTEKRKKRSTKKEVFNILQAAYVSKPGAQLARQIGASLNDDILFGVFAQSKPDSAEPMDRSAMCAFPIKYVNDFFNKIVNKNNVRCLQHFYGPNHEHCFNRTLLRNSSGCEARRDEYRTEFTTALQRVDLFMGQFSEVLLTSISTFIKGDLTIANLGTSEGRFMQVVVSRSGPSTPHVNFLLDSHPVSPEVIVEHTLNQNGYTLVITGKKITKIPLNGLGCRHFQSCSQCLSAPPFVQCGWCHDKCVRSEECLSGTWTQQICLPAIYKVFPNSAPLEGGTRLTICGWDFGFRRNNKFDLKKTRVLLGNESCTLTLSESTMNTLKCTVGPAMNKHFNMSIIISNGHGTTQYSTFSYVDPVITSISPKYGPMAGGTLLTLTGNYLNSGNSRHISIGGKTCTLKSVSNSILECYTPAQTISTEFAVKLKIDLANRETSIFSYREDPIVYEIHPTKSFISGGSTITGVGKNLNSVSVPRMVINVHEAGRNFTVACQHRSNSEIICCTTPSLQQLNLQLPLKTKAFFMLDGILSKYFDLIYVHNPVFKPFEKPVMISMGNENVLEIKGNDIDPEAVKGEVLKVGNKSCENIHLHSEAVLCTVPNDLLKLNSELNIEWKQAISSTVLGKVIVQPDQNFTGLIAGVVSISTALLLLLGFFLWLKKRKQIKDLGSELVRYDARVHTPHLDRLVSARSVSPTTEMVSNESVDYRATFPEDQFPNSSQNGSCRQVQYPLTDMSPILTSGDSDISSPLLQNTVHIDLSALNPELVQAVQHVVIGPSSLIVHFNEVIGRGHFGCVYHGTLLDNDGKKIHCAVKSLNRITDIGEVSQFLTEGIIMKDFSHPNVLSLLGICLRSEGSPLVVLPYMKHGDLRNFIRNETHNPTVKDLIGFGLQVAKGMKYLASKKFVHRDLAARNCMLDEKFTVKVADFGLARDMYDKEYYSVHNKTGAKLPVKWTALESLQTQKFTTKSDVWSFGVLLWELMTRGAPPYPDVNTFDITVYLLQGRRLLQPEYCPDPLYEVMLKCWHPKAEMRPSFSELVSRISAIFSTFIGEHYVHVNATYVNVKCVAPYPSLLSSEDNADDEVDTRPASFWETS
Sequence of Casein kinase II subunit alpha (P68400 whole entry, looked up): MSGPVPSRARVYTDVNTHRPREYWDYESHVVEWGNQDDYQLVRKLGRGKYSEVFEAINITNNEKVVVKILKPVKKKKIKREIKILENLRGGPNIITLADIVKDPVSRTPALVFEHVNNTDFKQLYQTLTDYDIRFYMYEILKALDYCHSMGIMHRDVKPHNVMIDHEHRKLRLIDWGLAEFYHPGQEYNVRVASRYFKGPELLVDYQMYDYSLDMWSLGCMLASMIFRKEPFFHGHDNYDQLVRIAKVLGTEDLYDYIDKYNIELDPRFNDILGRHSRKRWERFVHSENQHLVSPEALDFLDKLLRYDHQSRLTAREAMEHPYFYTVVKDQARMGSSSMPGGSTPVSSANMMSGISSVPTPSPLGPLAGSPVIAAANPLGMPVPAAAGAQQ

Take `CNC(=O)Nc1ccc(-c2nc(N3CC4CCC(C3)O4)c3cnn(C4CCC5(CC4)OCCO5)c3n2)cc1`: the % of control was found to be 80% in assay [1] and 100% in assay [2].

As to `CCc1ccccc1C(=O)Nc1n[nH]c2c(C)c(F)c(C3C(C#N)=C(C)N(C)C(C)=C3C#N)cc12` [BAY-3827], the figures for the % of control in assay [3], in assay [4] and in assay [5] were 16%, 7.3% and 25%, respectively.

The molecule `CN(C)C/C=C/C(=O)Nc1ccc(C(=O)N2CCCC(Nc3ncc(Cl)c(-c4c[nH]c5ccccc45)n3)C2)cc1` (stereo unspecified) yielded a % of control in assay [6] of 89%.
